From ChEMBL document CHEMBL1132041, “Inhibition of human telomerase by PNA-cationic peptide conjugates” (Bioorg Med Chem Lett, 1999)

Target: Telomerase reverse transcriptase (Homo sapiens, UniProt O14746)
Assay: Inhibitory activity against human telomerase

Sequence of Telomerase reverse transcriptase (O14746 whole entry): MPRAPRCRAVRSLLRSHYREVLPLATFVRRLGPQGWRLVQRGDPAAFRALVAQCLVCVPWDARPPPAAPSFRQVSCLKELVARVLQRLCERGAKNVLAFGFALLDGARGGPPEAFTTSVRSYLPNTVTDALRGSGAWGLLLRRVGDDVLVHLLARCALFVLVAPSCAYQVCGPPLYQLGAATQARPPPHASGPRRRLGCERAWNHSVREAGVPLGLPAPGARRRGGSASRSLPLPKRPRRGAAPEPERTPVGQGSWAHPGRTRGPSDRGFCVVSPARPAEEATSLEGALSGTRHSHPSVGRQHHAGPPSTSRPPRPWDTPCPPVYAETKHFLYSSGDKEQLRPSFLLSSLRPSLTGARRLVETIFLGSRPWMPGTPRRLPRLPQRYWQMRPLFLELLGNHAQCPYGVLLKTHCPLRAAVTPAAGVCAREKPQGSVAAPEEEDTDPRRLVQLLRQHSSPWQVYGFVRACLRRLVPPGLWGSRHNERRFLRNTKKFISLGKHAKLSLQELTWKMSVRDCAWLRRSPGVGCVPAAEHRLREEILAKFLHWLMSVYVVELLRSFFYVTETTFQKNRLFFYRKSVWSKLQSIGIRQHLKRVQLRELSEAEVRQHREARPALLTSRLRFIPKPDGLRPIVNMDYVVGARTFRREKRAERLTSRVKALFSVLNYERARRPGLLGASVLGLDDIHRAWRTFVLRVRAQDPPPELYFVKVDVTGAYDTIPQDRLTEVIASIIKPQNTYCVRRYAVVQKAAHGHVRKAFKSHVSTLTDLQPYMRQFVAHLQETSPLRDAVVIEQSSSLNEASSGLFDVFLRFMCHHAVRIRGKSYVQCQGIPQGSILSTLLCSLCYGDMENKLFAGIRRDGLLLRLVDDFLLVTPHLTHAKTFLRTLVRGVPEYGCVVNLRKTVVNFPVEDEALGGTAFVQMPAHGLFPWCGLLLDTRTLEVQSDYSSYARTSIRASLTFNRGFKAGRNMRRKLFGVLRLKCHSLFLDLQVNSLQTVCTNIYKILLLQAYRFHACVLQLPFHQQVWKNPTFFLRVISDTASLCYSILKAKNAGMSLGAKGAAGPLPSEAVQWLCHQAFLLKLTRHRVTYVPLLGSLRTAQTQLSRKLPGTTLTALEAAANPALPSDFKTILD

Compound | IC50 [nM]
Cc1cn([C@H]2C[C@H](OP(=O)(O)OC[C@H]3O[C@@H](n4cnc5c(N)ncnc54)C[C@@H]3OP(=O)(O)OC[C@H]3O[C@@H](N4C=NC5C(=O)N=C(N)N=C54)C[C@@H]3OP(=O)(O)OC[C@H]3O[C@@H](N4C=NC5C(=O)N=C(N)N=C54)C[C@@H]3OP(=O)(O)OC[C@H]3O[C@@H](N4C=NC5C(=O)N=C(NC(=O)O)N=C54)C[C@@H]3O)[C@@H](COP(=O)(O)ON)O2)c(=O)[nH]c1=O (some centres undefined) | 1160
Cc1cn(C2CC(OP(=O)(O)OCC3OC(n4cnc5c(N)ncnc54)CC3OP(=O)(O)OCC3OC(n4cnc5c(=O)[nH]c(N)nc54)CC3OP(=O)(O)OCC3OC(n4cnc5c(=O)[nH]c(N)nc54)CC3OP(=O)(O)OCC3OC(n4cnc5c(=O)[nH]c(N)nc54)CC3O)C(COP(=O)(O)C(=O)[C@H](CS)NC(=O)[C@H](CCCCN)NC(=O)[C@H](CCCCN)NC(=O)[C@H](CCCCN)NC(=O)[C@H](CCCCN)NC(=O)[C@H](CCCCN)NC(=O)[C@H](C)N)O2)c(=O)[nH]c1=O (some centres undefined) | 290
Cc1cn(C2CC(OP(=O)(O)OCC3OC(n4cnc5c(N)ncnc54)CC3OP(=O)(O)OCC3OC(n4cnc5c(=O)[nH]c(N)nc54)CC3OP(=O)(O)OCC3OC(n4cnc5c(=O)[nH]c(N)nc54)CC3OP(=O)(O)OCC3OC(n4cnc5c(=O)[nH]c(N)nc54)CC3O)C(COP(=O)(O)C(=O)[C@H](CS)NC(=O)[C@H](CCCNC(=N)N)NC(=O)[C@H](CCCNC(=N)N)NC(=O)[C@H](CCCNC(=N)N)NC(=O)[C@H](CCCNC(=N)N)NC(=O)[C@H](CCCNC(=N)N)NC(=O)[C@H](C)N)O2)c(=O)[nH]c1=O (some centres undefined) | 140
Cc1cn(C2CC(OP(=O)(O)OCC3OC(n4cnc5c(N)ncnc54)CC3OP(=O)(O)OCC3OC(n4cnc5c(N)nc(N)nc54)CC3OP(=O)(O)OCC3OC(n4cnc5c(O)nc(N)nc54)CC3OP(=O)(O)OCC3OC(n4cnc5c(O)nc(N)nc54)CC3O)C(COP(=O)(O)C(=O)[C@H](CS)NC(=O)[C@H](CCCN)NC(=O)[C@H](CCCN)NC(=O)[C@H](CCCN)NC(=O)[C@H](CCCN)NC(=O)[C@H](CCCN)NC(=O)[C@H](C)N)O2)c(=O)[nH]c1=O (some centres undefined) | 450
